Reference: US20030228395A1, “Isotropic transparent structured fluids” (Archer-Daniels Midland Company, priority 2002, published 2003)

How the values were obtained:
[1] = Effect of pH on stability of micro-emulsions; type: physicochemical; conditions: maximum tocopherol acetate, line 6.4 of Example 1, dilutions 50%, 60%, 70%, 80%; buffer pH 3.4, 3.8, 5.4, 7.0, 8.6 replacing water
Excerpt: A buffer of different pH values (3.4, 3.8, 5.4, 7.0 and 8.6) replaced the water in the aqueous phase.

[2] = Excerpt: FIG. 6. […] The values assign the maximum amount of vitamin E that can be solubilized as a wt/wt percentage of the total micro-emulsion weight.
The maximum amount of vitamin E solubilized was compared among the different forms of vitamin E along line 6:4 in the five-component system of D-limonene/ethanol (1/1) as the oil phase, TWEEN 60 as surfactant, and water/1,2-propanediol (1/1) as the aqueous phase, in order to obtain insight into the difference in their interfacial behavior (FIG. 6).

Row | stability of micro-emulsions at different pH [1] | solubilization capacity when D-limonene was replaced by triacetin [2] | SMILES | solubilization capacity along the dilution line [2]
1 | stable for over two months | – | CC(=O)Oc1c(C)c(C)c2c(c1C)CCC(C)(CCC[C@H](C)CCC[C@H](C)CCCC(C)C)O2 (stereo partly drawn) [Tocopherol Acetate, tocopherol acetate] | –
2 | – | increased along all of the dilution line | Cc1c(C)c2c(c(C)c1O)CC[C@@](C)(CCC[C@H](C)CCC[C@H](C)CCCC(C)C)O2 [alpha-tocopherol] | two main dramatic decreases in solubilization, after which a stabilization in solubilization is maintained
